{"source": "patent US20200016163A1", "about": "“TREATMENT OF DEMENTIA WITH CANNABINOID AGONISTS” (priority 2017, published 2020)", "key": {"[1]": {"tested_on": "lesion of cholinergic cells of nucleus basalis magnocellularis in rats (model of irreversible Alzheimer-type dementia)", "assay": "Barnes maze (spatial memory) in rats with 192 IgG-saporin lesion of the nucleus basalis magnocellularis, 1 round of training sessions", "type": "in vivo, Sprague Dawley rats", "details": "5 administrations", "description": "The animal model used is the lesion of cholinergic cells of nucleus basalis magnocellularis in rats to cause memory loss that is sustained over time. It is a recognized model of irreversible-type dementia, specifically of irreversible Alzheimer-type dementia.\n(§1) More specifically, a bilateral lesion was generated in the nucleus basalis magnocellularis in the brain of male Sprague Dawley rats (male 150-200 g) by means of stereotaxic coordinates (bregma −1.5 mm anteroposterior, ±3 mm laterodorsal and −8 mm ventral from the surface of the cranium) by injecting toxin 192 IgG-saporin (Merck-Millipore. Ref:MAB390) (SAP, n=30) (135 ng/μl/hemisphere; 0.25 μl/min) dissolved in artificial cerebrospinal fluid (CSF, n=28) (148 mM NaCl, 2.7 mM KCl, […], 1.2 mM CaCl2.2H2O; pH 7.4 adjusted with 1 mM K2HPO4) and the same method was carried out for the lesion control group but in this case only CSF (1 μl/hemisphere) was injected. Finally, as control of the latter, another group of animals was used which only received the injection of the needle and no compound was administered (SHAM, n=7). To stabilize the lesion process, the animals were not handled for one week. […] The compound is dissolved in DMSO:Cremophor:saline according to ratio [1:1:18].\nThe test used to evaluate the cognitive deficit of these models was the Barnes maze, which measures spatial memory. It is a circular maze with 20 holes on the periphery and only one of them has an escape box. When the animal finds this box, it is returned to its cage. This method is performed four times a day for four days (16 training sessions). On the fifth day, the hole leading to the escape box is covered and the animal explores the maze for three minutes for the purpose of finding this hole (test). The time in the target quadrant will be evaluated in the test. This parameter indicates if the animal accurately remembers where the escape hole is located because it will spend more time in the quadrant containing said hole (target quadrant). This parameter was analyzed by means of SMART 3.0 video-tracking software. Compared to other types of behavioral tests that evaluate memory in rodents, this test has the advantage that there is no aversive stimulus with which effects relating to fear and anxiety may interfere, which thereby prevents confusing anxiolytic effects with cognitive enhancing effects."}, "[2]": {"tested_on": "lesion of cholinergic cells of nucleus basalis magnocellularis in rats (model of irreversible Alzheimer-type dementia)", "assay": "Barnes maze in 192 IgG-saporin lesioned rats, 2 rounds of training sessions (second round with treatment)", "type": "in vivo, Sprague Dawley rats", "details": "SAP* rats with previously shown deficit (SAP*+WIN); new escape hole, 0.5 mg/kg i.p. on 4 training days and test day from day 18", "description": "as §1\nThe test used to evaluate the cognitive deficit of these models was the Barnes maze, which measures spatial memory. It is a circular maze with 20 holes on the periphery and only one of them has an escape box. When the animal finds this box, it is returned to its cage. […] The time in the target quadrant will be evaluated in the test. […] This parameter was analyzed by means of SMART 3.0 video-tracking software. […]"}}, "note": "Entries after “also recorded” stand apart in the source; their conditions may differ.", "data": [{"smiles": "Cc1c(C(=O)NN2CCCCC2)nn(-c2ccc(Cl)cc2Cl)c1-c1ccc(Cl)cc1", "note": "[SR141716A]", "values": [{"measurement": "effect of CB1 antagonist co-administration on the WIN55,212-2 effect, time in the target quadrant, Barnes maze test", "setting": "[1]; SAP-lesioned rats (SAP+W+SR), SR141716A 0.5 mg/kg together with WIN55,212-2 0.5 mg/kg i.p.", "value": "reversing the effect produced by treatment with WIN55,212-2 alone"}]}, {"smiles": "Cc1c(C(=O)c2cccc3ccccc23)c2cccc3c2n1[C@H](CN1CCOCC1)CO3", "note": "[WIN55,212-2]", "values": [{"measurement": "effect on memory of a control rat (time in the target quadrant), Barnes maze test", "setting": "[1]; CSF control rats (CSF+W3), 3 mg/kg i.p.", "value": "detrimental for memory"}, {"measurement": "time in the target quadrant, Barnes maze test, non-lesioned control group", "setting": "[1]; CSF control rats (CSF+WIN), 0.5 mg/kg i.p. once daily", "value": "no effect"}, {"measurement": "time in the target quadrant, Barnes maze test, high dose", "setting": "[1]; SAP-lesioned rats (SAP+W3), 3 mg/kg i.p.", "value": "behave like a control rat"}, {"measurement": "time in the target quadrant (memory deficit), Barnes maze test", "setting": "[1]; SAP-lesioned rats (SAP+WIN), 0.5 mg/kg i.p. once daily, one hour before training/test, 0.5 mg/kg", "value": "had no memory deficits; also recorded: spends the most amount of time in the target quadrant"}, {"measurement": "ability to remember the escape hole (time in the target quadrant), Barnes maze test", "setting": "[2]", "value": "capable of remembering it"}]}]}
